{
  "source": "paper PMC1874184",
  "about": "(Environmental Health Perspectives, 2005)",
  "key": {"[1]": {"tested_on": "ER-like binding site (specific [3H]-E2 binding)", "experiment": "Competitive displacement of specific [3H]-E2 binding in gonad cytosolic extracts", "settings": "for Displacement activity / affinity for ER-like binding site (in words): 24 nM [3H]-E2; for IC50: read-out: IC50, displacement of specific [3H]-E2 binding, 24 nM [3H]-E2, 18 hr incubation, n = 3"}, "Caenorhabditis elegans": {"tested_on": "Caenorhabditis elegans", "settings": "ref Tominaga et al. (2003); cited from earlier work"}, "Marisa cornuarietis [2]": {"tested_on": "Marisa cornuarietis", "experiment": "Exposure series I: 6-month semistatic exposure of sexually mature snails at 22°C", "assay_type": "in vivo"}, "vertebrate ER": {"tested_on": "vertebrate ER", "settings": "ref Bolger et al. 1998; cited from earlier work"}, "[3]": {"tested_on": "swordtails (Xiphophorus helleri)", "settings": "male fish; ref Kwak et al. 2001; cited from earlier work"}, "Potamopyrgus antipodarum": {"tested_on": "Potamopyrgus antipodarum", "settings": "exposure via sediments; ref Duft et al. (2003); cited from earlier work"}, "Acartia tonsa": {"tested_on": "Acartia tonsa", "settings": "ref Andersen et al. (1999); cited from earlier work"}, "C. riparius": {"tested_on": "C. riparius", "settings": "freshly emerged midges, 1 to 3,000 μg/L; ref Hahn et al. (2002); cited from earlier work"}, "[4]": {"settings": "ref Heemken et al. 2001; Staples et al. 1998; cited from earlier work"}, "[5]": {"tested_on": "freshwater sponges (Heteromyenia sp.)", "settings": "ref Hill et al. (2002); cited from earlier work"}, "[6]": {"settings": "cited from earlier work"}, "[7]": {"tested_on": "Japanese medaka (Oryzias latipes)", "settings": "ref Metcalfe et al. 2001; cited from earlier work"}, "[8]": {"tested_on": "aquatic organisms (vertebrates and invertebrates)", "settings": "ref Hirano et al. 2004, Ike et al. 2002; cited from earlier work"}, "Marisa cornuarietis [9]": {"tested_on": "Marisa cornuarietis", "assay_type": "in vivo", "settings": "for EC10 (95% confidence intervals), clutch production / EC10 (95% confidence intervals), egg production / NOEC, clutch production / NOEC, egg production: entire duration; for Oviduct malformations under co-exposure with BPA: 5 μg BPA/L plus 3 μg ICI 182,780/L or 10 μg tamoxifen/L"}, "Marisa cornuarietis [10]": {"tested_on": "Marisa cornuarietis", "settings": "ref Oehlmann et al. 2000; cited from earlier work"}, "[11]": {"settings": "prespawning period (days 0–65), 22°C, based on measured BPA concentrations"}, "[12]": {"settings": "prespawning period, 22°C, measured concentrations"}, "[13]": {"settings": "20°C, measured BPA concentrations"}, "[14]": {"settings": "27°C, measured BPA concentrations"}},
  "note": "Entries after “also recorded” stand apart in the source; their conditions may differ. Where two headings read alike, the source gives them in different places.",
  "data": [
    {"smiles": "C[C@]12CC[C@H]3[C@@H](CCC4=CC(=O)CC[C@@]43C)[C@@H]1CC[C@@H]2O", "note": "[T, testosterone]", "values": [
      {"measurement": "Displacement activity / affinity for ER-like binding site (in words)", "setting": "[1]", "result": "only weak displacement activity"}
    ]},
    {"smiles": "CC(C)(c1ccc(O)cc1)c1ccc(O)cc1", "note": "[BPA, 4,4′-isopropylidine diphenol]", "values": [
      {"measurement": "LC50", "setting": "Caenorhabditis elegans", "result": "> 100", "unit": "µM"},
      {"measurement": "Cumulative clutch and egg production compared with SC", "setting": "Marisa cornuarietis [2]; entire experiment, nominal BPA 0.1, 0.5 and 1 μg/L, PC 0.01 μg/L EE2, p < 0.05", "result": "significantly more"},
      {"measurement": "Incidence of superfemales with oviduct malformations", "setting": "Marisa cornuarietis [2]; nominal 0.05 μg/L BPA, 22°C", "result": 1.2, "unit": "%"},
      {"measurement": "Incidence of superfemales with oviduct malformations", "setting": "Marisa cornuarietis [2]; nominal 0.1 μg/L BPA, 22°C", "result": 0, "unit": "%"},
      {"measurement": "Incidence of superfemales with oviduct malformations", "setting": "Marisa cornuarietis [2]; nominal 0.25 μg/L BPA, 22°C", "result": 2.0, "unit": "%"},
      {"measurement": "Incidence of superfemales with oviduct malformations", "setting": "Marisa cornuarietis [2]; nominal 0.5 μg/L BPA, 22°C", "result": 3.1, "unit": "%"},
      {"measurement": "Incidence of superfemales with oviduct malformations", "setting": "Marisa cornuarietis [2]; nominal 1 μg/L BPA, 22°C", "result": 3.2, "unit": "%"},
      {"measurement": "EC10 (95% confidence intervals), clutch production", "setting": "Marisa cornuarietis [2]; [11]", "result": "14.6 (13.8–15.4) ng/L"},
      {"measurement": "EC10 (95% confidence intervals), egg production", "setting": "Marisa cornuarietis [2]; [11]", "result": "13.9 (12.8–15.0) ng/L"},
      {"measurement": "LOEC, clutch production", "setting": "Marisa cornuarietis [2]; [12]", "result": 48.3, "unit": "ng/L"},
      {"measurement": "LOEC, egg production", "setting": "Marisa cornuarietis [2]; [12]", "result": 48.3, "unit": "ng/L"},
      {"measurement": "NOEC, clutch production", "setting": "Marisa cornuarietis [2]; [12]", "result": 7.9, "unit": "ng/L"},
      {"measurement": "NOEC, egg production", "setting": "Marisa cornuarietis [2]; [12]", "result": 7.9, "unit": "ng/L"},
      {"measurement": "Imposex development", "setting": "Marisa cornuarietis [2]; sexually mature snails, 22°C, ANOVA and Weir test p > 0.2", "result": "did not induce imposex development"},
      {"measurement": "Affinity to the vertebrate ER (in words)", "setting": "vertebrate ER", "result": "weak affinity"},
      {"measurement": "Concentration range inhibiting development of the sword", "setting": "[3]", "result": "0.2 to 20", "unit": "ng/mL"},
      {"measurement": "EC10, increase of embryo numbers in the brood pouch (superfemale response)", "setting": "Potamopyrgus antipodarum", "result": 0.22, "unit": "μg BPA/kg"},
      {"measurement": "Concentration with increase of egg production", "setting": "Acartia tonsa", "result": 20, "unit": "μg BPA/L"},
      {"measurement": "Reduction of yolk protein contents", "setting": "C. riparius", "result": "20–25%"},
      {"measurement": "log KOW", "setting": "[4]", "result": "2.20–3.82"},
      {"measurement": "Concentration completely inhibiting germination", "setting": "[5]", "result": 80000, "unit": "ng/mL"},
      {"measurement": "Concentration range with significant reductions in growth rates", "setting": "[5]", "result": "160 to 160000", "unit": "ng/mL"},
      {"measurement": "half-life (degradation)", "setting": "[6]; in sewage treatment plants, ref Howard 1989", "result": 28, "unit": "days"},
      {"measurement": "half-life (degradation)", "setting": "[6]; in water, ref Dorn et al. 1987", "result": "2.5 to 4", "unit": "days"},
      {"measurement": "IC50", "setting": "[1]", "result": 24.8, "unit": "µM"},
      {"measurement": "Concentration inducing ovotestes (as low as)", "setting": "[7]", "result": 10, "unit": "ng/mL"},
      {"measurement": "96-hr LC50 (median lethal concentration)", "setting": "[8]", "result": "1000 to 20000", "unit": "ng/mL"},
      {"measurement": "Imposex development", "setting": "Marisa cornuarietis [9]; 20°C and 27°C, ANOVA and Weir test p > 0.5", "result": "did not induce imposex development"},
      {"measurement": "Size of genital organs (penis pouch, penis sheath, penis) in males", "setting": "Marisa cornuarietis [9]; 20°C or 27°C, with the exception of penis length at 20°C", "result": "did not affect"},
      {"measurement": "EC10 (95% confidence intervals), clutch production", "setting": "Marisa cornuarietis [9]; [13]", "result": "18.0 (6.20–52.4) ng/L"},
      {"measurement": "EC10 (95% confidence intervals), egg production", "setting": "Marisa cornuarietis [9]; [13]", "result": "14.8 (6.07–36.2) ng/L"},
      {"measurement": "NOEC, clutch production", "setting": "Marisa cornuarietis [9]; 20°C, measured concentrations", "result": "< 106", "unit": "ng/L"},
      {"measurement": "NOEC, egg production", "setting": "Marisa cornuarietis [9]; 20°C, measured concentrations", "result": "< 106", "unit": "ng/L"},
      {"measurement": "LOEC, clutch production", "setting": "Marisa cornuarietis [9]; 20°C, measured concentrations", "result": 106, "unit": "ng/L"},
      {"measurement": "LOEC, egg production", "setting": "Marisa cornuarietis [9]; 20°C, measured concentrations", "result": 106, "unit": "ng/L"},
      {"measurement": "Incidence of superfemales with oviduct malformations", "setting": "Marisa cornuarietis [9]; 20°C, nominal 0.25 μg/L BPA", "result": 4.8},
      {"measurement": "Incidence of superfemales with oviduct malformations", "setting": "Marisa cornuarietis [9]; 20°C, nominal 0.5 μg/L BPA", "result": 8.0},
      {"measurement": "Incidence of superfemales with oviduct malformations", "setting": "Marisa cornuarietis [9]; 20°C, nominal 1 μg/L BPA", "result": 14.8},
      {"measurement": "Incidence of superfemales with oviduct malformations", "setting": "Marisa cornuarietis [9]; 20°C, nominal 5 μg/L BPA", "result": 11.5},
      {"measurement": "Mortality compared to SC", "setting": "Marisa cornuarietis [9]; 20°C, 0.25, 0.5, 1 and 5 μg BPA/L, χ2 test", "result": "increased significantly"},
      {"measurement": "Clutch and egg production compared with SC", "setting": "Marisa cornuarietis [9]; 20°C, cumulative p < 0.01, per female p < 0.001", "result": "significantly more"},
      {"measurement": "Penis length in males", "setting": "Marisa cornuarietis [9]; 20°C, p < 0.01", "result": "significant decrease; also recorded: concentration-dependent reduction"},
      {"measurement": "EC10 (95% confidence intervals), clutch production", "setting": "Marisa cornuarietis [9]; [14]", "result": "2090 (796–5,460) ng/L"},
      {"measurement": "EC10 (95% confidence intervals), egg production", "setting": "Marisa cornuarietis [9]; [14]", "result": "998 (161–6,200) ng/L"},
      {"measurement": "NOEC, clutch production", "setting": "Marisa cornuarietis [9]; 27°C, measured concentrations", "result": "≥ 1990", "unit": "ng/L"},
      {"measurement": "NOEC, egg production", "setting": "Marisa cornuarietis [9]; 27°C, measured concentrations", "result": 205, "unit": "ng/L"},
      {"measurement": "Clutch production compared with control", "setting": "Marisa cornuarietis [9]; 27°C, groups exposed solely to BPA", "result": "none of the groups exposed solely to BPA produced significantly more clutches"},
      {"measurement": "EC10, clutch production", "setting": "Marisa cornuarietis [9]; [14]", "result": 2.09, "unit": "ng/mL"},
      {"measurement": "EC10, egg production", "setting": "Marisa cornuarietis [9]; [14]", "result": 0.998, "unit": "ng/mL"},
      {"measurement": "LOEC, egg production", "setting": "Marisa cornuarietis [9]; 27°C, measured concentrations", "result": 436, "unit": "ng/L"},
      {"measurement": "Cumulative egg production compared with SC", "setting": "Marisa cornuarietis [9]; 27°C, only at nominal 1 and 5 μg/L, p < 0.05", "result": "significant increase"},
      {"measurement": "Concentration inducing superfeminization syndrome (as low as)", "setting": "Marisa cornuarietis [10]", "result": 1, "unit": "ng/mL"}
    ]},
    {"smiles": "C[C@]12CC[C@@H]3c4ccc(O)cc4CC[C@H]3[C@@H]1CC[C@@H]2O", "note": "[E2]", "values": [
      {"measurement": "IC50", "setting": "[1]", "result": 0.753, "unit": "µM"}
    ]},
    {"smiles": "CC/C(=C(\\c1ccccc1)c1ccc(OCCN(C)C)cc1)c1ccccc1", "note": "[Tam, tamoxifen, reference compound]", "values": [
      {"measurement": "Displacement activity / affinity for ER-like binding site (in words)", "setting": "[1]", "result": "moderate affinity"},
      {"measurement": "Oviduct malformations under co-exposure with BPA", "setting": "Marisa cornuarietis [9]; 20°C", "result": "No oviduct malformations"}
    ]},
    {"smiles": "C[C@]12CC[C@@H]3c4ccc(O)cc4C[C@@H](CCCCCCCCC[S+]([O-])CCCC(F)(F)C(F)(F)F)[C@H]3[C@@H]1CC[C@@H]2O", "note": "(stereo partly shown) [ICI, ICI 182,780, reference compound]", "values": [
      {"measurement": "Imposex intensities compared to SC under co-exposure with BPA", "setting": "Marisa cornuarietis [9]; 5 μg BPA/L plus 3 μg ICI 182,780/L, both temperatures, Weir test p < 0.05", "result": "imposex intensities increased"},
      {"measurement": "Oviduct malformations under co-exposure with BPA", "setting": "Marisa cornuarietis [9]; 20°C", "result": "No oviduct malformations"}
    ]}
  ]
}
